Data from US20220160872A1, “Drug Adsorbed Highly Porous Activated Carbon for Enhanced Drug Delivery” (THE BOARD OF TRUSTEES OF THE UNIVERSITY OF ILLINOIS, priority 2019, published 2022).

What was measured:
HSV-1 (McKrae) = assay type: in vivo
HSV-2 (333 strain) = assay: Murine model of vaginal HSV-2 infection; assay type: in vivo, BALB/c mice
Protocol: Naïve 4-week-old female BALB/c mice were purchased from Jackson Laboratory (Bar Harbor, USA) and housed in the university BRL for a period of one week for acclimatization before they were subcutaneously injected with 2 mg of medroxyprogesterone (Depo-Provera) per mice. On day 5 post injection, mice were intravaginally infected with 1×10^6 PFU HSV-2 (333 strain). Similar to the ocular model of infection, DECON was applied topically (intravaginally) on alternate days while ACV (50 mg/mL in PBS) was administered via an intraperitoneal injection. PBS was applied intravaginally as mock treatment for the control group. Vaginal swabs were collected using a Calgiswab (Calcium Alginate Mini-tip Urethro-Genital Swab, Puritan) dipped in OptiMEM (Gibco, USA). Images of the ano-genital region were taken on day 0 and day 7 post infection using a Carl Zeiss stereoscope at 7.5× magnification.
Experiments involving animals were performed under a UIC approved protocol ACC 14-091. The mice were monitored for weight loss and disease scores were recorded in a blinded fashion for 14 days. Sick mice were euthanized according to the IUCAC protocol followed by the collection of ocular/vaginal tissue and lymph nodes. Ocular wash and vaginal swabs were used to assess viral titers using a plaque assay.
With the success of topical ocular therapy with DECON, it was investigated whether this delivery platform was effective for vaginal HSV-2 infections as well. Naïve Balb/c mice were primed with medroxyprogestrone 5 days prior to intravaginal HSV-2 infection. Starting at day 1 post infection, mice were either treated with topical DECON or systemic ACV (5 mg/kg) by intraperitoneal injections […], DECON was administered intravaginally […]. The genital area was imaged using a stereoscope on days 0 and 7 to visualize the extent of damage done to the site of infection. […] This was observed by the phenotype of infection and analyzed by plaque assays from vaginal swabs. […] In the mock treated group, 60% of mice succumbed to death by day 14 post infection, while 20% of mice treated with systemic ACV and none of DECON treated mice succumbed to death (FIG. 5D).

HSV-1 = assay: Prophylactic and therapeutic DECON treatment of HCEs with HSV-1 infection in vitro; assay type: cell-based; conditions: prophylactically added
Protocol: Cell monolayer was washed twice with PBS before whole media with required HSV infection was added.
To comprehensively test the efficacy of drug release and resulting antiviral activity of DECON particles, a prophylactic and therapeutic model of treatment was used on HCEs followed by HSV-1 infection in vitro.
Flow cytometry was conducted on the samples at 24 hpi showing the extent of cells infected with HSV-1 GFP (see FIG. 8C). FIG. 8d provides representative immunoblots for samples showing HSV-1 gB protein in comparison with GAPDH for HSV-1 infected HCEs at 24 hpi.

Row | Compound | mice succumbed to death (HSV-1 (McKrae); by day 15, topical treatment on alternate days) | viral replication / infection vs mock treated (HSV-1 (McKrae); topical, alternate days, ocular washes) | mice succumbed to death (HSV-2 (333 strain); by day 14 post infection) | inflammation of vaginal and anogenital area (HSV-2 (333 strain); compared to mock-treated mice) | viral titers, plaque assays from vaginal swabs (HSV-2 (333 strain); day 4 and day 7 post infection, DECON intravaginal, ACV 5 mg/kg intraperitoneal) | lymph node size (HSV-2 (333 strain); day 14 post infection) | antiviral response (HSV-1)
1 | O=c1[nH]c(=O)n([C@H]2C[C@H](O)[C@@H](CO)O2)cc1C(F)(F)F [TFT, trifluridine] | Up to 20% | did not show any significant reduction in viral replication |  |  |  |  | 
2 | Nc1nc2c(ncn2COCCO)c(=O)[nH]1 [ACV, Acyclovir] |  |  | 20% | only slight inflammation | steady reduction in viral titers | little to no increase in size | did not elicit a robust antiviral response
